From patent publication US7803801B2, “Aminopyridine compounds having Syk inhibitory activity” (Japan Tobacco, Inc., priority 2005, dated 2010)
Counter-ions that a name gives are not always drawn. Like-named read-outs stand apart in the source and are kept apart here.

Assays:
[1] = molecular target: GST-Syk Full Protein (human) (Homo sapiens, UniProt P43405); test: Syk kinase inhibition test (HTRF method); type: biochemical
How it was run: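 Human GST-Syk full-length (6.4 nM) phosphorylated biotin-EDPDYEWPSA-NH2 (250 nM) with 100 μM ATP in HEPES pH 7.0/MgCl2 buffer, 2% DMSO, 30 min at room temperature. EDTA stop, then HTRF detection (streptavidin-XL665, Eu anti-phosphotyrosine) after 1 h; 665/620 ratio read.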

[2] = system: cultured human mast cells; test: Degranulation inhibition test using cultured human mast cells (IgE cross-linking, β-Hexosaminidase release); type: cell-based; settings: Mast cell, cultured human mast cells, read-out: human degranulation ave. IC50
How it was run: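 CD34+ cord-blood cells cultured ≥8 weeks with SCF/IL-6/IL-3; FcεRI primed 5 days with rhIL-4 (1 ng/mL) and hIgE (0.5 μg/mL). Compound (0.1% DMSO) preincubated 10 min at 37 °C, then anti-IgE (final 10 μg/mL) 30 min; released β-hexosaminidase read at 405 nm versus total lysate, IC50 (M).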

[3] = HTRF, 100 μM ATP, 30 min room temperature, average, read-out: sykHTRF ave IC50
[4] = Tables 2-x, thiophene compounds B, read-out: sykHTRK ave IC50
[5] = Tables 2-x, thiophene compounds B
[6] = anti-hIgE stimulation, β-Hexosaminidase index, average
[7] = Tables 1-x, compounds A, read-out: sykHTRF ave IC50

| SMILES | IC50 [1, 3] | IC50 [2, 6] | also measured |
| --- | --- | --- | --- |
| Cc1ccnc(Nc2cccc(-c3cnc(C4CCN(C(=O)N5CCC(=O)CC5)CC4)s3)n2)c1 [Compound A-250] | 0.1 to 1 µM |  | IC50 ([2]; Homo sapiens, anti-hIgE stimulation, β-Hexosaminidase index, average): 0.1 to 1 µM |
| Cc1ccnc(Nc2cccc(-c3ccc(C(=O)O)s3)n2)c1 [Compound B-20] |  |  | IC50 [1, 4]: 0.1 to 1 µM; IC50 [2, 5]: > 1 µM |
| CC(=O)N[C@@H](COCc1ccccc1)c1ncc(-c2cccc(Nc3cc(C)ccn3)n2)s1 [Compound A-45] | > 1 µM | > 1 µM |  |
| Cc1ccnc(Nc2cccc(-c3cnc(C(=O)NCC(C)(C)CO)s3)n2)c1 [Compound A-62] | 0.1 to 1 µM | > 1 µM |  |
| COCCNC(=O)C1CCN(c2ncc(-c3cccc(Nc4cc(C)ccn4)n3)s2)CC1 [Compound A-435] |  |  | IC50 [1, 7]: 0.1 to 1 µM; IC50 ([2]; Tables 1-x, compounds A): > 1 µM |
| CC(=O)N1CCC(CCc2ncc(-c3cccc(Nc4cc(C)ccn4)n3)s2)CC1 [Compound A-259] | 0.1 to 1 µM | 0.1 to 1 µM |  |
| Cc1ccnc(Nc2cccc(-c3ccc(C=O)s3)n2)c1 [Compound B-2, 5-[6-(4-methylpyridin-2-ylamino)pyridin-2-yl]thiophene-2-carboxaldehyde] |  |  | IC50 [1, 4]: < 0.1 µM; IC50 [2, 5]: > 1 µM |
| CC(=O)N(C)[C@H](c1ccc(O)cc1)c1ncc(-c2cccc(Nc3cc(C)ccn3)n2)s1 [Compound A-372, N—((R)-(4-hydroxyphenyl)-{5-[6-(4-methylpyridin-2-ylamino)pyridin-2-yl]thiazol-2-yl}methyl)-N-methylacetamide] | < 0.1 µM | 0.1 to 1 µM |  |
| Cc1ccnc(Nc2cccc(-c3cnc([C@H]4CC[C@H](C(=O)N5CCC(O)CC5)CC4)s3)n2)c1 [Compound A-8, (4-hydroxypiperidin-1-yl)-(trans-4-{5-[6-(4-methylpyridin-2-ylamino)pyridin-2-yl]thiazol-2-yl}cyclohexyl)methanone] | 0.1 to 1 µM | 0.1 to 1 µM |  |
| CCOC(=O)CNC(=O)NCc1ncc(-c2cccc(Nc3cc(C)ccn3)n2)s1 [Compound A-252] | 0.1 to 1 µM | 0.1 to 1 µM |  |
| Cc1ccnc(Nc2cccc(-c3cnc([C@H]4CC[C@H](C(=O)NC(C)(C)CO)CC4)s3)n2)c1 [Compound A-175] | 0.1 to 1 µM | 0.1 to 1 µM |  |
| COc1ccc(CCc2ncc(-c3cccc(Nc4cc(C)ccn4)n3)s2)cc1 [Compound A-137] | 0.1 to 1 µM | > 1 µM |  |
| Cc1ccnc(Nc2cccc(-c3cnc(N(CC(N)=O)C[C@H]4CC[C@H](C(=O)O)CC4)s3)n2)c1 [Compound A-599, trans-4-[(N-carbamoylmethyl-N-{5-[6-(4-methylpyridin-2-ylamino)pyridin-2-yl]thiazol-2-yl}amino)methyl]cyclohexanecarboxylic acid] |  |  | IC50 [1, 7]: < 0.1 µM; IC50 ([2]; Tables 1-x, compounds A): > 1 µM |
| Cc1ccnc(Nc2cccc(-c3cnc(CC(C)(C)NS(C)(=O)=O)s3)n2)c1 [Compound A-337, N-(1,1-dimethyl-2-{5-[6-(4-methylpyridin-2-ylamino)pyridin-2-yl]-thiazol-2-yl}ethyl)methanesulfonamide] | < 0.1 µM | < 0.1 µM |  |
| Cc1ccnc(Nc2cccc(-c3cnc(N4CCOc5c(C(=O)O)cccc54)s3)n2)c1 [Compound A-614, 4-{5-[6-(4-methylpyridin-2-ylamino)pyridin-2-yl]thiazol-2-yl}-3,4-dihydro-2H-benzo[1,4]oxazine-8-carboxylic acid] |  |  | IC50 [1, 7]: < 0.1 µM; IC50 ([2]; Tables 1-x, compounds A): > 1 µM |
| Cc1ccnc(Nc2cccc(-c3cnc(N(CC(N)=O)[C@H]4CC[C@H](C(=O)O)CC4)s3)n2)c1 [Compound A-600] |  |  | IC50 [1, 7]: 0.1 to 1 µM; IC50 ([2]; Tables 1-x, compounds A): > 1 µM |
| OCCc1ccnc(Nc2cccc(-c3cnc(N4CC[C@@H](O)C4)s3)n2)c1 [Compound A-577, (R)-1-(5-{6-[4-(2-hydroxyethyl)pyridin-2-ylamino]pyridin-2-yl}thiazol-2-yl)pyrrolidin-3-ol dihydrochloride] |  |  | IC50 [1, 7]: < 0.1 µM; IC50 ([2]; Tables 1-x, compounds A): 0.1 to 1 µM |
| Cc1ccnc(Nc2cccc(-c3cnc(N(CC(=O)N(C)C)Cc4ccc(C(=O)O)cc4)s3)n2)c1 [Compound A-597, 4-[(N-dimethylcarbamoylmethyl-N-{5-[6-(4-methylpyridin-2-ylamino)pyridin-2-yl]thiazol-2-yl}amino)methyl]benzoic acid dihydrochloride] |  |  | IC50 [1, 7]: < 0.1 µM; IC50 ([2]; Tables 1-x, compounds A): > 1 µM |
| CC(=O)NC1CCN(C(=O)[C@H]2CC[C@H](c3ncc(-c4cccc(Nc5cc(C)ccn5)n4)s3)CC2)C1 (stereo partly shown) [Compound A-284] | 0.1 to 1 µM | 0.1 to 1 µM |  |
| CC(=O)N[C@H](c1ccc(O)cc1)c1ncc(-c2cccc(Nc3cc(C)ccn3)n2)s1 [Compound A-161, N—((R)-(4-hydroxyphenyl)-{5-[6-(4-methylpyridin-2-ylamino)pyridin-2-yl]thiazol-2-yl}methyl)acetamide] | < 0.1 µM | 0.1 to 1 µM |  |
| Cc1ccnc(Nc2cccc(-c3cnc(COCC(=O)N(C)C)s3)n2)c1 [Compound A-368] | 0.1 to 1 µM | 0.1 to 1 µM |  |

| SMILES | IC50 [1, 3] | IC50 [2, 6] | also measured |
| --- | --- | --- | --- |
| Cc1ccnc(Nc2cccc(-c3cnc(Cc4cccnc4)s3)n2)c1 [Compound A-248, N-(4-methylpyridin-2-yl)-N-[6-(2-pyridin-3-ylmethylthiazol-5-yl)pyridin-2-yl]amine] | < 0.1 µM | 0.1 to 1 µM |  |
| Cc1ccnc(Nc2cccc(-c3cnc(CNS(C)(=O)=O)s3)n2)c1 [Compound A-200, N-{5-[6-(4-methylpyridin-2-ylamino)pyridin-2-yl]thiazol-2-ylmethyl}methanesulfonamide] | < 0.1 µM | 0.1 to 1 µM |  |
| Cc1ccnc(Nc2cccc(-c3ccc(C(=O)NC(C)(C)C(=O)O)s3)n2)c1 [Compound B-100] |  |  | IC50 [1, 4]: 0.1 to 1 µM; IC50 [2, 5]: > 1 µM |
| Cc1ccnc(Nc2cccc(-c3cnc(COC(=O)NC[C@H]4CC[C@H](C(=O)O)CC4)s3)n2)c1 [Compound A-206] | > 1 µM | > 1 µM |  |
| Cc1ccnc(Nc2cccc(-c3cnc(CNCC4(O)CCCCC4)s3)n2)c1 [Compound A-196] | 0.1 to 1 µM | 0.1 to 1 µM |  |
| Cc1ccnc(Nc2cccc(-c3cnc(Cc4ccc(C(=O)N5CCC(O)CC5)cc4)s3)n2)c1 [Compound A-234] | > 1 µM | > 1 µM |  |
| Cc1ccnc(Nc2cccc(-c3ccc(-c4noc(=O)[nH]4)s3)n2)c1 [Compound B-61] |  |  | IC50 [1, 4]: 0.1 to 1 µM; IC50 [2, 5]: > 1 µM |
| Cc1ccnc(Nc2cccc(-c3cnc([C@@H]4COC(=O)N4C)s3)n2)c1 [Compound A-11] | 0.1 to 1 µM | 0.1 to 1 µM |  |
| Cc1ccnc(Nc2cccc(-c3cnc(N4CCC(C)(C(=O)O)CC4)s3)n2)c1 [Compound A-540, 4-methyl-1-{5-[6-(4-methylpyridin-2-ylamino)pyridin-2-yl]thiazol-2-yl}piperidine-4-carboxylic acid] |  |  | IC50 [1, 7]: < 0.1 µM; IC50 ([2]; Tables 1-x, compounds A): 0.1 to 1 µM |
| CC(O)c1ccnc(Nc2cccc(-c3cnc(N4CCC(C(N)=O)CC4)s3)n2)c1 (stereo not shown) [Compound A-547, 1-(5-{6-[4-(1-hydroxyethyl)pyridin-2-ylamino]pyridin-2-yl}thiazol-2-yl)piperidine-4-carboxamide] |  |  | IC50 [1, 7]: < 0.1 µM; IC50 ([2]; Tables 1-x, compounds A): > 1 µM |
| Cc1ccnc(Nc2cccc(-c3cnc(C(C)(C)N)s3)n2)c1 [Compound A-113] | 0.1 to 1 µM | 0.1 to 1 µM |  |
| Cc1ccnc(Nc2cccc(-c3cnc(CC(C)(C)CCO)s3)n2)c1 [Compound A-158, 3,3-dimethyl-4-{5-[6-(4-methylpyridin-2-ylamino)pyridin-2-yl]thiazol-2-yl}butan-1-ol] | < 0.1 µM | 0.1 to 1 µM |  |
| Cc1ccnc(Nc2cccc(-c3cnc(N4CCCC(C(=O)NCCO)C4)s3)n2)c1 (stereo not shown) [Compound A-478, N-(2-hydroxyethyl)-1-{5-[6-(4-methylpyridin-2-ylamino)pyridin-2-yl]thiazol-2-yl}piperidine-3-carboxamide] |  |  | IC50 [1, 7]: < 0.1 µM; IC50 ([2]; Tables 1-x, compounds A): 0.1 to 1 µM |
| Cc1ccnc(Nc2cccc(-c3cnc(COCC(N)=O)s3)n2)c1 [Compound A-354] | 0.1 to 1 µM | 0.1 to 1 µM |  |
| CNC(=O)CC1CCN(c2ncc(-c3cccc(Nc4cc(C)ccn4)n3)s2)CC1 [Compound A-505, N-methyl-2-(1-{5-[6-(4-methylpyridin-2-ylamino)pyridin-2-yl]thiazol-2-yl}piperidin-4-yl)acetamide] |  |  | IC50 [1, 7]: < 0.1 µM; IC50 ([2]; Tables 1-x, compounds A): 0.1 to 1 µM |
| CCC(=O)N1CCN(c2ncc(-c3cccc(Nc4cc(C)ccn4)n3)s2)CC1 [Compound A-440, 1-(4-{5-[6-(4-methylpyridin-2-ylamino)pyridin-2-yl]thiazol-2-yl}piperazin-1-yl)propan-1-one] |  |  | IC50 [1, 7]: < 0.1 µM; IC50 ([2]; Tables 1-x, compounds A): 0.1 to 1 µM |
| Cc1ccnc(Nc2cccc(-c3cnc(C4CCCN(S(C)(=O)=O)C4)s3)n2)c1 (stereo not shown) [Compound A-392] |  |  | IC50 [1, 7]: 0.1 to 1 µM; IC50 ([2]; Tables 1-x, compounds A): 0.1 to 1 µM |
| Cc1ccnc(Nc2cccc(-c3ccc(C(N)=O)s3)n2)c1 [Compound B-23, 5-[6-(4-methylpyridin-2-ylamino)pyridin-2-yl]thiophene-2-carboxamide] |  |  | IC50 [1, 4]: < 0.1 µM; IC50 [2, 5]: > 1 µM |
| CC(=O)N1CCN(C(=O)[C@H]2CC[C@H](c3ncc(-c4cccc(Nc5cc(C)ccn5)n4)s3)CC2)CC1 [Compound A-289] | 0.1 to 1 µM | > 1 µM |  |
| Cc1ccnc(Nc2cccc(-c3cnc([C@@H](N)CO)s3)n2)c1 [Compound A-13, (S)-2-amino-2-{5-[6-(4-methylpyridin-2-ylamino)pyridin-2-yl]thiazol-2-yl}ethanol] | 0.1 to 1 µM | 0.1 to 1 µM |  |
